A melting point compilation (Tetko et al.; mined from patent text by program, amines drawn as free bases though some values may be those of a salt)

| SMILES | melting point [°C] |
| --- | --- |
| O=c1cc(O)c2c([nH]1)CCCC2 | > 300 |
| CC(NC(=O)OCc1ccccc1)C(=O)N1CC(=O)NC1(C)C (configuration not stated) | 170 to 171 |
| CC(=C1SC(=O)NC1=O)c1ccc(OCCOc2c(-c3ccc(F)c(F)c3)n(C)c3ccc(F)cc3c2=O)c(Cl)c1 | 215 to 218 |
| CC(Cc1ccc(O)cc1)NCC(O)c1cc2ccccc2o1 (configuration not stated) | 135 to 138 |
| CCNCC1(O)CCN(c2cc3c(cc2F)c(=O)c(C(=O)O)cn3C2CC2)C1 (configuration not stated) | 202 to 207 |
| Cc1[nH]c(=O)c2c(N)c([N+](=O)[O-])ccc2c1C | > 300 |
| COC(=O)c1ccc(I)c(O)c1 | 153 |
| CCC(C)(C)Nc1c(NCc2ccc(F)cc2Cl)c(=O)c1=O | 201 to 203 |
| O=C(OCc1ccccc1)C(C(=O)OCc1ccccc1)n1cccc1C(=O)C(Cl)(Cl)Cl | 74 to 76 |
| Cc1cccc2c(Nc3cc(CO)cc(NC(=O)Oc4ccc(N(CCCl)CCCl)cc4)c3)c3ccccc3nc12 | 229 to 231 |
| O=C(NCc1ccccc1)c1ccccc1I | 122 to 123 |
| O=C1c2c(Cl)cccc2-n2cnc(-c3noc(CN4Cc5ccccc5C4)n3)c2[C@@H]2CCN12 | 218 to 222 |
| COC(=O)c1ccc2nc(C)[nH]c2c1C(=O)OC | 97 to 103 |
| O=C(NCC1CCN(C[C@H]2COc3ccc(Cl)cc3O2)CC1)c1cccc2cccnc12 | 51 to 54 |
| Cc1cc(-c2ccc(C(F)(F)F)cc2)cc(-c2ccnc(-c3ccnc(N)c3)n2)n1 | 217 |
| CCOC(=O)C1CCN(C(=O)/C=C/c2ccc(Sc3ccc4c(c3)OCCO4)c([N+](=O)[O-])c2)CC1 | 78 to 88 |
| c1coc(CN2CC3(COc4cc5c(cc43)OCO5)c3ccccc32)c1 (configuration not stated) | 110 to 112 |
| CC(C)Oc1ccc(/C=C(\NC(=O)c2ccc(OCCC3C=CCC3)cc2)C(=O)NCCO)cc1 (configuration not stated) | 67 to 70 |
| CC(C)(CO)CCCCCCCCCC(C)(C)CO | 52 to 54 |
| CS(=O)c1ccc(-c2nn(Cc3ccc(Cl)cc3Cl)c(=O)cc2-c2ccc(Cl)cc2)cc1 (configuration not stated) | 236 to 237 |
| CN(C)CCSc1nnc(SCN2C(=O)c3ccccc3S2(=O)=O)s1 | 90.5 to 91.5 |

Second part, the compound after the results:

| melting point [°C] | SMILES |
| --- | --- |
| 152 to 155 | CN1CCN(CC2=NC(NC(=O)Nc3cccc(C#N)c3)C(=O)N(CC(=O)N(C)c3ccccc3)c3ccccc32)CC1 (configuration not stated) |
| 172 to 173 | Cc1cccc(C)c1NCc1nnc(S)n1C |
| 77 | CCC1CCC(c2ccc(-c3cc(F)c(C(F)(F)Oc4cc(F)c(C(F)(F)F)c(F)c4)c(F)c3)c(F)c2)CC1 (configuration not stated) |
| 121 to 122 | COc1ccc(C2Sc3cccc4cccc(c34)N(CCN(C)C)C(=O)C2O)cc1 (configuration not stated) |
| 128 to 129 | Cc1cccc(OCC(F)(F)F)c1NC(=O)CCl |
| 119 to 122 | CC(Br)=C(c1ccc(N(C)C)cc1)c1ccc(N(C)C)cc1 |
| 124 to 125 | CN1C(=O)N2CCOC2(c2ccccc2)c2cc(Cl)ccc21 (configuration not stated) |
| 225 to 227 | CCOC(=O)c1cccc2nc(S)n(Cc3ccc(-c4ccccc4C#N)cc3)c12 |
| 103 to 104 | CC(C)(C)OC(=O)COc1ccc(C(=O)CN2CCN(c3ccncc3)CC2)cc1 |
| 163 to 165 | CCCCn1c(=O)c2nn(S(=O)(=O)c3cccc(C(F)(F)F)c3)cc2n(CCCC)c1=O |
| 240 to 242 | CC(C)(C)OC(=O)N1CCN(c2nc(N)c3nc(-c4ccccc4)c(N)nc3n2)CC1 |
| 206 | Cc1cc(C#Cc2cnn3c(C(F)(F)F)cc(-c4ccc(C(F)(F)F)cc4)nc23)ccn1 |
| 233 to 234 | CC(C)(CCC#N)c1ccc(C(=O)Nc2cn3cc(-n4ccnc4)ccc3n2)cc1 |
| 78 to 80 | NCCCCc1ccccc1C1=NNC(=O)CC1 |
| 183 to 185 | CC(C)N(CCCCS(=O)(=O)CC(=O)O)c1cnc(-c2ccccc2)c(-c2ccccc2)n1 |
| 86 to 88 | CCc1c(OCc2ccc(Cl)cc2)cnn(C(C)(C)C)c1=O |
